Data published in PubChem BioAssay (NCI).
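Cultured in 96-well plates, cells were exposed to test compound for 48 hours across five concentrations. TGI denotes the concentration required for complete inhibition of growth.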

Legend:
Assay in all cases: NCI-60 cell line screen, 48 h
786-0 renal = test system: 786-0 renal
A498 renal = test system: A498 renal
A549 NSCLC = test system: A549 NSCLC
ACHN renal = test system: ACHN renal
BT-549 breast = test system: BT-549 breast
CAKI-1 renal = test system: CAKI-1 renal
CCRF-CEM leukemia = test system: CCRF-CEM leukemia
COLO 205 colon = test system: COLO 205 colon
DU-145 prostate = test system: DU-145 prostate
EKVX NSCLC = test system: EKVX NSCLC
HCC-2998 colon = test system: HCC-2998 colon
HCT-116 colon = test system: HCT-116 colon
HCT-15 colon = test system: HCT-15 colon
HL-60(TB) leukemia = test system: HL-60(TB) leukemia
HOP-62 NSCLC = test system: HOP-62 NSCLC
HOP-92 NSCLC = test system: HOP-92 NSCLC
HS 578T breast = test system: HS 578T breast
HT29 colon = test system: HT29 colon
IGROV1 ovarian = test system: IGROV1 ovarian
K-562 leukemia = test system: K-562 leukemia
KM12 colon = test system: KM12 colon
LOX IMVI melanoma = test system: LOX IMVI melanoma
M14 melanoma = test system: M14 melanoma
MALME-3M melanoma = test system: MALME-3M melanoma
MCF7 breast = test system: MCF7 breast
MDA-MB-231 breast = test system: MDA-MB-231 breast
MDA-MB-435 = test system: MDA-MB-435
MDA-N = test system: MDA-N
MOLT-4 leukemia = test system: MOLT-4 leukemia
NCI-H226 lung = test system: NCI-H226 lung
NCI-H23 lung = test system: NCI-H23 lung
NCI-H460 lung = test system: NCI-H460 lung
NCI-H522 lung = test system: NCI-H522 lung
NCI/ADR-RES ovarian = test system: NCI/ADR-RES ovarian
OVCAR-3 ovarian = test system: OVCAR-3 ovarian
OVCAR-4 ovarian = test system: OVCAR-4 ovarian
OVCAR-8 ovarian = test system: OVCAR-8 ovarian
PC-3 prostate = test system: PC-3 prostate
RPMI-8226 leukemia = test system: RPMI-8226 leukemia
RXF 393 renal = test system: RXF 393 renal
SF-268 CNS = test system: SF-268 CNS
SF-539 CNS = test system: SF-539 CNS
SK-MEL-28 melanoma = test system: SK-MEL-28 melanoma
SK-MEL-5 melanoma = test system: SK-MEL-5 melanoma
SK-OV-3 ovarian = test system: SK-OV-3 ovarian
SN12C renal = test system: SN12C renal
SNB-19 CNS = test system: SNB-19 CNS
SR leukemia = test system: SR leukemia
SW-620 colon = test system: SW-620 colon
T-47D breast = test system: T-47D breast
TK-10 renal = test system: TK-10 renal
UACC-257 melanoma = test system: UACC-257 melanoma
UACC-62 melanoma = test system: UACC-62 melanoma
UO-31 renal = test system: UO-31 renal
OVCAR-5 ovarian = test system: OVCAR-5 ovarian
SF-295 CNS = test system: SF-295 CNS
SK-MEL-2 melanoma = test system: SK-MEL-2 melanoma
SNB-75 CNS = test system: SNB-75 CNS
U251 CNS = test system: U251 CNS

O=C(C(Cl)=C(N1CCOCC1)N1CCOCC1)C(Cl)Cl
TGI (786-0 renal): > 100 µM
TGI (A498 renal): > 100 µM
TGI (A549 NSCLC): > 100 µM
TGI (ACHN renal): > 100 µM
TGI (BT-549 breast): > 100 µM
TGI (CAKI-1 renal): > 100 µM
TGI (CCRF-CEM leukemia): > 100 µM
TGI (COLO 205 colon): > 100 µM
TGI (DU-145 prostate): > 100 µM
TGI (EKVX NSCLC): > 100 µM
TGI (HCC-2998 colon): > 100 µM
TGI (HCT-116 colon): > 100 µM
TGI (HCT-15 colon): > 100 µM
TGI (HL-60(TB) leukemia): > 100 µM
TGI (HOP-62 NSCLC): > 100 µM
TGI (HOP-92 NSCLC): > 100 µM
TGI (HS 578T breast): > 100 µM
TGI (HT29 colon): > 100 µM
TGI (IGROV1 ovarian): > 100 µM
TGI (K-562 leukemia): > 100 µM
TGI (KM12 colon): > 100 µM
TGI (LOX IMVI melanoma): > 100 µM
TGI (M14 melanoma): > 100 µM
TGI (MALME-3M melanoma): > 100 µM
TGI (MCF7 breast): > 100 µM
TGI (MDA-MB-231 breast): > 100 µM
TGI (MDA-MB-435): > 100 µM
TGI (MDA-N): > 100 µM
TGI (MOLT-4 leukemia): > 100 µM
TGI (NCI-H226 lung): > 100 µM
TGI (NCI-H23 lung): > 100 µM
TGI (NCI-H460 lung): > 100 µM
TGI (NCI-H522 lung): > 100 µM
TGI (NCI/ADR-RES ovarian): > 100 µM
TGI (OVCAR-3 ovarian): > 100 µM
TGI (OVCAR-4 ovarian): > 100 µM
TGI (OVCAR-8 ovarian): > 100 µM
TGI (PC-3 prostate): > 100 µM
TGI (RPMI-8226 leukemia): > 100 µM
TGI (RXF 393 renal): > 100 µM
TGI (SF-268 CNS): > 100 µM
TGI (SF-539 CNS): > 100 µM
TGI (SK-MEL-28 melanoma): > 100 µM
TGI (SK-MEL-5 melanoma): > 100 µM
TGI (SK-OV-3 ovarian): > 100 µM
TGI (SN12C renal): > 100 µM
TGI (SNB-19 CNS): > 100 µM
TGI (SR leukemia): > 100 µM
TGI (SW-620 colon): > 100 µM
TGI (T-47D breast): > 100 µM
TGI (TK-10 renal): > 100 µM
TGI (UACC-257 melanoma): > 100 µM
TGI (UACC-62 melanoma): > 100 µM
TGI (UO-31 renal): > 100 µM

N#Cc1nc(C2CCC2)oc1N
TGI (786-0 renal): > 100 µM
TGI (A498 renal): > 100 µM
TGI (A549 NSCLC): > 100 µM
TGI (ACHN renal): > 100 µM
TGI (CAKI-1 renal): > 100 µM
TGI (CCRF-CEM leukemia): 54.7 µM
TGI (COLO 205 colon): > 100 µM
TGI (DU-145 prostate): > 100 µM
TGI (EKVX NSCLC): > 100 µM
TGI (HCC-2998 colon): > 100 µM
TGI (HCT-116 colon): > 100 µM
TGI (HCT-15 colon): > 100 µM
TGI (HL-60(TB) leukemia): > 100 µM
TGI (HOP-62 NSCLC): > 100 µM
TGI (HOP-92 NSCLC): > 100 µM
TGI (HS 578T breast): > 100 µM
TGI (HT29 colon): > 100 µM
TGI (IGROV1 ovarian): > 100 µM
TGI (K-562 leukemia): > 100 µM
TGI (KM12 colon): > 100 µM
TGI (LOX IMVI melanoma): > 100 µM
TGI (M14 melanoma): > 100 µM
TGI (MALME-3M melanoma): > 100 µM
TGI (MCF7 breast): > 100 µM
TGI (MDA-MB-231 breast): > 100 µM
TGI (MDA-MB-435): > 100 µM
TGI (MDA-N): > 100 µM
TGI (MOLT-4 leukemia): > 100 µM
TGI (NCI-H226 lung): > 100 µM
TGI (NCI-H23 lung): > 100 µM
TGI (NCI-H460 lung): > 100 µM
TGI (NCI-H522 lung): > 100 µM
TGI (NCI/ADR-RES ovarian): > 100 µM
TGI (OVCAR-3 ovarian): > 100 µM
TGI (OVCAR-4 ovarian): > 100 µM
TGI (OVCAR-5 ovarian): > 100 µM
TGI (OVCAR-8 ovarian): > 100 µM
TGI (PC-3 prostate): > 100 µM
TGI (RPMI-8226 leukemia): > 100 µM
TGI (RXF 393 renal): > 100 µM
TGI (SF-268 CNS): > 100 µM
TGI (SF-295 CNS): > 100 µM
TGI (SF-539 CNS): > 100 µM
TGI (SK-MEL-2 melanoma): > 100 µM
TGI (SK-MEL-28 melanoma): > 100 µM
TGI (SK-MEL-5 melanoma): > 100 µM
TGI (SK-OV-3 ovarian): > 100 µM
TGI (SN12C renal): > 100 µM
TGI (SNB-19 CNS): > 100 µM
TGI (SNB-75 CNS): > 100 µM
TGI (SR leukemia): > 100 µM
TGI (SW-620 colon): > 100 µM
TGI (T-47D breast): > 100 µM
TGI (TK-10 renal): > 100 µM
TGI (U251 CNS): > 100 µM
TGI (UACC-257 melanoma): > 100 µM
TGI (UACC-62 melanoma): > 100 µM
TGI (UO-31 renal): > 100 µM

CC(C)CCC1(CCN)C(=O)NC(=O)NC1=O
TGI (786-0 renal): > 100 µM
TGI (A498 renal): > 100 µM
TGI (A549 NSCLC): > 100 µM
TGI (ACHN renal): > 100 µM
TGI (BT-549 breast): > 100 µM
TGI (CAKI-1 renal): > 100 µM
TGI (CCRF-CEM leukemia): 48.3 µM
TGI (COLO 205 colon): > 100 µM
TGI (DU-145 prostate): > 100 µM
TGI (EKVX NSCLC): > 100 µM
TGI (HCT-116 colon): > 100 µM
TGI (HCT-15 colon): > 100 µM
TGI (HL-60(TB) leukemia): 66.7 µM
TGI (HOP-62 NSCLC): > 100 µM
TGI (HOP-92 NSCLC): > 100 µM
TGI (HS 578T breast): > 100 µM
TGI (HT29 colon): > 100 µM
TGI (IGROV1 ovarian): > 100 µM
TGI (K-562 leukemia): > 100 µM
TGI (KM12 colon): > 100 µM
TGI (LOX IMVI melanoma): > 100 µM
TGI (M14 melanoma): > 100 µM
TGI (MALME-3M melanoma): > 100 µM
TGI (MCF7 breast): > 100 µM
TGI (MDA-MB-231 breast): > 100 µM
TGI (MDA-MB-435): > 100 µM
TGI (MDA-N): > 100 µM
TGI (MOLT-4 leukemia): 72.2 µM
TGI (NCI-H226 lung): > 100 µM
TGI (NCI-H23 lung): > 100 µM
TGI (NCI-H460 lung): > 100 µM
TGI (NCI-H522 lung): > 100 µM
TGI (NCI/ADR-RES ovarian): > 100 µM
TGI (OVCAR-3 ovarian): > 100 µM
TGI (OVCAR-4 ovarian): > 100 µM
TGI (OVCAR-5 ovarian): > 100 µM
TGI (OVCAR-8 ovarian): > 100 µM
TGI (PC-3 prostate): > 100 µM
TGI (RPMI-8226 leukemia): > 100 µM
TGI (RXF 393 renal): > 100 µM
TGI (SF-268 CNS): > 100 µM
TGI (SF-295 CNS): > 100 µM
TGI (SF-539 CNS): > 100 µM
TGI (SK-MEL-2 melanoma): > 100 µM
TGI (SK-MEL-28 melanoma): > 100 µM
TGI (SK-MEL-5 melanoma): > 100 µM
TGI (SK-OV-3 ovarian): > 100 µM
TGI (SN12C renal): > 100 µM
TGI (SNB-19 CNS): > 100 µM
TGI (SNB-75 CNS): > 100 µM
TGI (SR leukemia): > 100 µM
TGI (SW-620 colon): > 100 µM
TGI (T-47D breast): > 100 µM
TGI (TK-10 renal): > 100 µM
TGI (U251 CNS): > 100 µM
TGI (UACC-257 melanoma): > 100 µM
TGI (UACC-62 melanoma): > 100 µM
TGI (UO-31 renal): > 100 µM
